The test system of the data set is GENE-TOX genotoxicity assays, various organisms and cells. The experiment in a line: GENE-TOX mutagenicity studies. As to conditions: for call: Assay Type: In vivo carcinogenicity studies.
Setting [1] is: Species/Cell Type: Human diploid fibroblasts, Assay Type: Unscheduled DNA synthesis (UDS) in vitro, DNA effects, Assay Code: UDH-, Evaluation Type: Evaluation A (Pre-1980).
Where [2] appears, read: Species/Cell Type: Saccharomyces cerevisiae, Assay Type: Mitotic recombination or gene conversion, Assay Code: YEH-, Evaluation Type: Evaluation A (Pre-1980).
Setting [3] is: Species/Cell Type: Salmonella typhimurium (one or more of the five standard strains: TA98, TA100, TA1535, TA1537, and TA1538), Assay Type: Histidine reverse gene mutation, Ames assay, Assay Code: SAL-, Evaluation Type: Evaluation A (Pre-1980).
Where [4] appears, read: Species/Cell Type: Chinese hamster lung (V79) cells, Assay Type: Forward gene mutation at the HPRT or ouabain locus, Assay Code: V79+, Evaluation Type: Evaluation A (Pre-1980).
The mark [5] stands for this setting: Species/Cell Type: Salmonella typhimurium (one or more of the five standard strains: TA98, TA100, TA1535, TA1537, and TA1538), Assay Type: Histidine reverse gene mutation, Ames assay, Assay Code: SALT, Evaluation Type: Evaluation A (Pre-1980).
Setting [6] is: Species/Cell Type: Bacillus subtilis (H17 vs M45T), Assay Type: Rec-assay, spot test, DNA effects (bacterial DNA repair), Assay Code: REXT, Evaluation Type: Evaluation A (Pre-1980).

Calls of active or inactive are those of the source. No rule for the calls is given here.

On to `COc1ccc(C(c2ccc(OC)cc2)C(Cl)(Cl)Cl)cc1`, for which the mutagenic call by setting is: (Species/Cell Type: Bacillus subtilis (H17 vs M45), Assay Type: Rec-assay, spot test, DNA effects (bacterial DNA repair), Assay Code: REWT, Evaluation Type: Evaluation A (Pre-1980)) “no conclusion”; (Species/Cell Type: Drosophila melanogaster, Assay Type: Sex-linked recessive lethal gene mutation, Assay Code: SRL-, Evaluation Type: Evaluation A (Pre-1980)) “inactive; negative”; (Species/Cell Type: Escherichia coli WP2 UVRA, Assay Type: Tryptophan reverse gene mutation, Assay Code: WPU-*, Activation: With metabolic activation, Evaluation Type: Evaluation A (Pre-1980)) “inactive; negative”; (Species/Cell Type: Escherichia coli polA (W3119 vs P3478), Assay Type: Rec-assay, DNA effects (bacterial DNA repair), Assay Code: RE1T, Evaluation Type: Evaluation A (Pre-1980)) “no conclusion”; (Species/Cell Type: Fischer rat embryo (RLV/1706) cells, Assay Type: Cell transformation, viral enhanced, Assay Code: CTR-, Evaluation Type: Evaluation A (Pre-1980)) “inactive; negative”; under setting [1], “inactive; negative”. The mutagenic call is “active; positive” (Species/Cell Type: Mouse (BALB/c-3T3) cells, Assay Type: Cell transformation, Assay Code: CTB+D, Dose Response: With dose response, Evaluation Type: Evaluation A (Pre-1980)); “inactive; negative” under setting [2]; “inactive; negative” under setting [3]; “inactive; negative” (Species/Cell Type: Syrian hamster embryo (SHE) cells, Assay Type: Cell transformation, clonal assay, Assay Code: CTC-, Evaluation Type: Evaluation A (Pre-1980)). In addition, where the note is “Species/Cell Type: Nonhuman, Assay Code: CCG-, Evaluation Type: Evaluation A (Pre-1980)”, the call is “inactive; negative”.
For the compound `CC1C(c2ccccc2)OCCN1N=O` (configuration not stated), for the setting “Species/Cell Type: Salmonella typhimurium, Assay Type: Forward and reverse gene mutation, host-mediated assay, Assay Code: HMA-, Evaluation Type: Evaluation A (Pre-1980)”, the mutagenic call was “inactive; negative”.
In the case of `Cc1ccc2cc3c(ccc4ccccc43)c3c2c1C(=O)C3`, the mutagenic call runs as follows: under setting [4], “active; positive”; (Species/Cell Type: Salmonella typhimurium (one or more of the five standard strains: TA98, TA100, TA1535, TA1537, and TA1538), Assay Type: Histidine reverse gene mutation, Ames assay, Assay Code: SAL+*, Activation: With metabolic activation, Evaluation Type: Evaluation A (Pre-1980)) “active; positive”. The call (Species/Cell Type: Nonhuman, Assay Code: CCG+L, Evaluation Type: Evaluation A (Pre-1980)) is “active; positive”.
`CCCCCCCC(=O)N(C)N=O`: the mutagenic call (Species/Cell Type: Saccharomyces cerevisiae, Assay Type: Mitotic recombination or gene conversion, Assay Code: YEH+, Evaluation Type: Evaluation A (Pre-1980)) was “active; positive”.
In the case of `Cc1cc2ccc(F)cc2c2ccc3ccccc3c12`, under setting [5], the mutagenic call is “no conclusion”.
With `COC(=O)COc1ccc(Cl)cc1C`, the mutagenic call (Species/Cell Type: Saccharomyces cerevisiae, Assay Type: Reverse gene mutation, Assay Code: YER+, Evaluation Type: Evaluation A (Pre-1980)) is “active; positive”.
As for `Nc1c(N=Nc2ccc(S(=O)(=O)O)cc2)cc(N=Nc2ccc(S(=O)(=O)O)cc2)c(N)c1N=Nc1ccc(S(=O)(=O)O)cc1`, under setting [5], the mutagenic call is recorded as “no conclusion”.
For the compound `COC(=O)Cc1ccc(OC)c(CSC(=N)N)c1`, the mutagenic call (Species/Cell Type: Saccharomyces cerevisiae, Assay Type: Reverse gene mutation, Assay Code: YERT, Evaluation Type: Evaluation A (Pre-1980)) was “no conclusion”.
As for `Cc1cc2ccccc2cn1`, the mutagenic call under setting [5] was “no conclusion”.
With `O=C(O)CN(CC(=O)O)C1C[C@H]1N(CC(=O)O)CC(=O)O` (some centres not stated), the mutagenic call under setting [4] was “active; positive”.
Regarding `NC(=O)c1ccccc1`, the mutagenic call is, setting by setting: (Species/Cell Type: Human, Assay Type: Sister-chromatid exchange (SCE) in vitro, Assay Code: SC1+, Evaluation Type: Evaluation B (Post-1980)) “active; positive”; (Species/Cell Type: Mammalian polychromatic erythrocytes, Assay Type: Micronucleus test, chromosome aberrations, Assay Code: MNT+U, Dose Response: Unconfirmed positive response, Evaluation Type: Evaluation B (Post-1980)) “active; positive”; (Species/Cell Type: Nonhuman, Assay Type: Sister-chromatid exchange (SCE) in vitro, Assay Code: SC2+, Evaluation Type: Evaluation B (Post-1980)) “active; positive”.
As for `CCCCCCCCCCCCCC(=O)N(O)c1ccc2c(c1)Cc1ccccc1-2`, the mutagenic call runs as follows: under setting [1], “inactive; negative”; (Species/Cell Type: Salmonella typhimurium (one or more of the five standard strains: TA98, TA100, TA1535, TA1537, and TA1538), Assay Type: Histidine reverse gene mutation, Ames assay, Assay Code: SAL+, Evaluation Type: Evaluation A (Pre-1980)) “active; positive”.
Consider `CCC(C)c1ccccc1OC(=O)NC` (configuration not stated), for which the mutagenic call is, setting by setting: (Species/Cell Type: Bacillus subtilis (H17 vs M45T), Assay Type: Rec-assay, spot test, DNA effects (bacterial DNA repair), Assay Code: REX-, Evaluation Type: Evaluation A (Pre-1980)) “inactive; negative”; (Species/Cell Type: Escherichia coli WP2, Assay Type: Tryptophan reverse gene mutation, Assay Code: WP2-, Evaluation Type: Evaluation A (Pre-1980)) “inactive; negative”.
In the case of `C1=CC2C3C=CC(C3)C2C1` (configuration not stated), the mutagenic call is, setting by setting: under setting [2], “inactive; negative”; under setting [3], “inactive; negative”.
`CN[C@@H]1[C@H](O[C@H]2[C@H](O[C@H]3[C@H](O)[C@@H](O)[C@H](N=C(N)N)[C@@H](O)[C@@H]3N=C(N)N)O[C@@H](C)[C@]2(O)C=O)O[C@@H](CO)[C@H](O)[C@H]1O`: the mutagenic call by setting is: under setting [6], “no conclusion”; (Species/Cell Type: Drosophila melanogaster, Assay Type: Sex-linked recessive lethal gene mutation, Assay Code: SRLT, Evaluation Type: Evaluation A (Pre-1980)) “no conclusion”; (Species/Cell Type: Escherichia coli polA (W3119 vs P3478), Assay Type: Rec-assay, DNA effects (bacterial DNA repair), Assay Code: RE1-, Evaluation Type: Evaluation A (Pre-1980)) “inactive; negative”; (Species/Cell Type: Vicia faba, Assay Type: Chromosome aberrations, Assay Code: VIC+, Evaluation Type: Evaluation A (Pre-1980)) “active; positive”.
On to `c1ccc(-c2ccccc2)cc1`, for which the mutagenic call is “inactive; negative” under setting [1]; “active; positive” (Species/Cell Type: Nonhuman, Assay Type: Sister-chromatid exchange (SCE) in vitro, Assay Code: SC2+D, Dose Response: With dose response, Evaluation Type: Evaluation A (Pre-1980)); “inactive; negative” (Species/Cell Type: Rat primary hepatocytes, Assay Type: Unscheduled DNA synthesis (UDS) in vitro, DNA effects, Assay Code: UDP-, Evaluation Type: Evaluation A (Pre-1980)); “inactive; negative” under setting [2].
On to `Cc1c(C2(c3cc(Br)c(O)c(Br)c3C)OS(=O)(=O)c3ccccc32)cc(Br)c(O)c1Br`, for which the mutagenic call runs as follows: under setting [6], “no conclusion”; under setting [5], “no conclusion”.
Regarding `C[CH2][Hg][Cl]`, the mutagenic call (Species/Cell Type: Mammalian polychromatic erythrocytes, Assay Type: Micronucleus test, chromosome aberrations, Assay Code: MNTT, Evaluation Type: Evaluation B (Post-1980)) is recorded as “no conclusion”.

The values above are taken from PubChem BioAssay AID1259408 (Genetic Toxicology Data Bank (GENE-TOX), 2018).
